Patent US10966978B2, “Dose and regimen for HDM2-p53 interaction inhibitors” (Novartis AG, priority 2016, dated 2021)
In brackets after ≈: the same amount, converted by molar mass. Like-named read-outs stand apart in the source and are kept apart here. Marks after values point to notes of the source that are not given here.

Experiments:
SJSA-1 cell line = assay: Cellular activity in SJSA-1 cell line; type: cell-based; conditions: Homo sapiens
[1] = system: advanced TP53 wild-type (WT) leukemias (AML, ALL); type: in vivo, human
Excerpt: Tables 5 and 6 and FIG. 6 provide efficacy information for dosing regimen 1B in comparison to other regimens.

[2] = AML CR patient, 1A 250 mg, March 2017
[3] = AML CR patient, 1A 400 mg, March 2017
[4] = AML CR patient, 2C 45 mg, March 2017
[5] = AML CRi patient, 1B 150 mg, March 2017
[6] = CR, Reg 1A 250 mg, person, September 2017
[7] = CR, Reg 1A 400 mg, Male/71, September 2017
[8] = CR, Reg 1B 120 mg, Male/67, September 2017
[9] = CR, Reg 2C 45 mg, Male/76, September 2017
[10] = CR, Reg 2C 45 mg, person, September 2017
[11] = CRi, Reg 1A 250 mg, person, September 2017
[12] = CRi, Reg 1B 150 mg, person, September 2017
[13] = CRi, Reg 2C 45 mg, Male/70, September 2017
[14] = CRi, Reg 2C 45 mg, Male/79, September 2017
[15] = CRi, Reg 2C 45 mg, person one, September 2017
[16] = CRi, Reg 2C 45 mg, person three, September 2017
[17] = Dose escalation, Regimen 2C 45 mg (8 patients), September 2017
[18] = Dose expansion, Regimen 2C 45 mg (17 patients), September 2017
[19] = Regimen 1A (n = 15), March 2017

COc1ncc(-c2nc3c(n2C(C)C)[C@H](c2ccc(Cl)cc2)N(c2cc(Cl)cn(C)c2=O)C3=O)c(OC)n1 [HDM201, (S)-5-(5-Chloro-1-methyl-2-oxo-1,2-dihydro-pyridin-3-yl)-6-(4-chloro-phenyl)-2-(2,4-dimethoxy-pyrimidin-5-yl)-1-isopropyl-5,6-dihydro-1H-pyrrolo[3,4-d]imidazol-4-one]
IC50 (SJSA-1 cell line): 0.0294 µg/mL (≈ 0.0529 µM)
Count recovery time from C1D1 [1, 2]: 48 days
Duration of CR/CRi [1, 2]: 50 days
Time to CR/CRi [1, 2]: 7 weeks
Count recovery time from C1D1 [1, 3]: 40 days
Duration of CR/CRi [1, 3]: 23 days
Time to CR/CRi [1, 3]: 6 weeks
Count recovery time from C1D1 [1, 4]: 32 days
Duration of CR/CRi [1, 4]: 152 days
Time to CR/CRi [1, 4]: 5 weeks
Duration of CR/CRi [1, 5]: 51 days
Time to CR/CRi [1, 5]: 11 weeks
Duration of CR/CRi ([1]; AML CRi patient, 2C 45 mg, donor five, March 2017, patient withdrew consent while on CRi): 1* days
Duration of CR/CRi ([1]; AML CRi patient, 2C 45 mg, donor two, March 2017, patient ongoing at data cut off): 1^† days
CR/CRi results, number of patients ([1]; AML patients, Regimen 1B, September 2017): The already observed 2 CR/CRi results out of the small number of patients treated so far demonstrate the strong antitumor activity of the HDM201 in AML patients when dosed according to Regimen 1B.
Count recovery time from C1D1 [1, 6]: 48 days
Duration of CR/CRi [1, 6]: 50 days
Time to CR/CRI [1, 6]: 7 weeks
Count recovery time from C1D1 [1, 7]: 40 days
Duration of CR/CRi [1, 7]: 23 days
Time to CR/CRI [1, 7]: 6 weeks
Count recovery time from C1D1 [1, 8]: 28 days
Duration of CR/CRi [1, 8]: 45 days
Time to CR/CRI [1, 8]: 4 weeks
Count recovery time from C1D1 [1, 9]: 32 days
Duration of CR/CRi [1, 9]: 152 days
Time to CR/CRI [1, 9]: 5 weeks
Count recovery time from C1D1 [1, 10]: 30 days
Duration of CR/CRi [1, 10]: 41 days
Time to CR/CRI [1, 10]: 4 weeks
Duration of CR/CRi [1, 11]: 67 days
Time to CR/CRI [1, 11]: 3 weeks
Duration of CR/CRi [1, 12]: 51 days
Time to CR/CRI [1, 12]: 11 weeks
Duration of CR/CRi [1, 13]: 1 days
Time to CR/CRI [1, 13]: 12 weeks
Duration of CR/CRi [1, 14]: 62 days
Time to CR/CRI [1, 14]: 4 weeks
Duration of CR/CRi [1, 15]: 105 days
Time to CR/CRI [1, 15]: 4 weeks
Duration of CR/CRi [1, 16]: 40 days
Time to CR/CRI [1, 16]: 7 weeks
CR, number of patients ([1]; Dose escalation, Regimen 1A 250 mg (3 patients), September 2017): 250 mg (3): 1 CR
CR, number of patients ([1]; Dose escalation, Regimen 1A 400 mg (9 patients), September 2017): 400 mg (9): 1 CR
CR, number of patients ([1]; Dose escalation, Regimen 1B 120 mg (6 patients), September 2017): 120 mg (6): 1 CR
CRi, number of patients ([1]; Dose escalation, Regimen 1B 150 mg (6 patients), September 2017): 150 mg (6): 1 CRi
CR, number of patients [1, 17]: 1
CRi, number of patients [1, 17]: 3
CRi, number of patients ([1]; Dose expansion, Regimen 1A 250 mg, 6 pts, September 2017): 1 CRi
CR, number of patients [1, 18]: 1 CR, 1CRi
CRi, number of patients [1, 18]: 1 CR, 1CRi
BOR: CR [1, 19]: 2 (13) n (%)
BOR: CRi [1, 19]: 0 (0) n (%)
ORR (CR + CRi + PR) [1, 19]: 2 (13) n (%)
BOR: CR ([1]; Regimen 1B (n = 6), March 2017): 0 (0) n (%)
BOR: CRi ([1]; Regimen 1B (n = 6), March 2017): 1 (17) n (%)
ORR (CR + CRi + PR) ([1]; Regimen 1B (n = 6), March 2017): 1 (17) n (%)
BOR: CR ([1]; Regimen 2A (n = 7), March 2017): 0 (0) n (%)
BOR: CRi ([1]; Regimen 2A (n = 7), March 2017): 0 (0) n (%)
ORR (CR + CRi + PR) ([1]; Regimen 2A (n = 7), March 2017): 0 (0) n (%)
BOR: CR ([1]; Regimen 2C (n = 7), March 2017): 1 (14) n (%)
BOR: CRi ([1]; Regimen 2C (n = 7), March 2017): 3 (43) n (%)
ORR (CR + CRi + PR) ([1]; Regimen 2C (n = 7), March 2017): 4 (57) n (%)
BOR: CR ([1]; Total (N = 35), March 2017): 3 (9) n (%)
BOR: CRi ([1]; Total (N = 35), March 2017): 4 (11) n (%)
ORR (CR + CRi + PR) ([1]; Total (N = 35), March 2017): 7 (20) n (%)
patients with CRi ([1]; regimen 1B, hematological tumors): One patient
